Test results published in article PMC7734590, “Identification of a Selective RelA Inhibitor Based on DSE-FRET Screening Methods” (International Journal of Molecular Sciences, 2020).
Several values for one entry are separate records, joined by “and”; a condition that tells them apart may be missing. Equal entries are not always repeated. Structures can show the parent of a compound that is named as a salt. Where two headings read alike, the source gives them in different places.

Tests used:
[1] = target: RelA (Homo sapiens, UniProt Q04206); assay: DSE-FRET RelA–DNA binding inhibition; type: biochemical; parameters: Kinetic assay RelA Inhibition % ΔRFU(60 min-0 min) / RelA HTS % Inhibition / RelA Retest % Inhibition Run1 / RelA Retest % Inhibition Run2 / RelA Retest % Inhibition Avg. / Kinetic assay RelA % Inhibition ΔRFU(60 min-0 min): dose or concentration left out as unconfirmed; conditions: for RelA Retest % Inhibition Avg.: Retest average of Run1 and Run2
Description: (§1) Plate-based (384 scale) DNA-binding experiments were carried out with 0.1 µL of 2 mM or 1 mg/mL compound, 2 µL of 80 nM NF-D1 (consisting of NF-01F and NF-14D), 1 µL of 20 ng/µL poly dI-dC, and 6.9 µL of 3.2 pmol protein in binding buffer (10 mM 4-(2-hydroxyethyl)-1-piperazineethanesulfonic acid (HEPES)–NaOH pH 7.9, 50 mM KCl, 0.1 mM ethylenediaminetetraacetic acid (EDTA), 2.5 mM dithiothreitol (DTT), 10% glycerol, and 0.05% Nonidet P40). The plates were incubated for 30 min at room temperature, after which 10 µL of NF-D2 (consisting of NF-02 and NF-13) was added. The plates were centrifuged at 1000 rpm for 30 s, followed by shaking for 30 s using a plate shaker (Biotec). Fluorescence was measured at 528 nm, after excitation at 485 nm, using a multiplate reader (Biotec) over a period of 60 min.

[2] = target: T1, p52 (Homo sapiens, UniProt Q00653); assay: DSE-FRET p52–DNA binding inhibition; type: biochemical; parameters: p52 Retest % Inhibition Run2 / p52 Retest % Inhibition Avg. / Kinetic assay p52 Inhibition % ΔRFU(60 min-0 min) / p52 HTS % Inhibition / p52 Retest % Inhibition Run1: dose or concentration left out as unconfirmed; conditions: for p52 Retest % Inhibition Avg.: Retest average of Run1 and Run2
T1 sequence (Q00653 1-454 limits assumed): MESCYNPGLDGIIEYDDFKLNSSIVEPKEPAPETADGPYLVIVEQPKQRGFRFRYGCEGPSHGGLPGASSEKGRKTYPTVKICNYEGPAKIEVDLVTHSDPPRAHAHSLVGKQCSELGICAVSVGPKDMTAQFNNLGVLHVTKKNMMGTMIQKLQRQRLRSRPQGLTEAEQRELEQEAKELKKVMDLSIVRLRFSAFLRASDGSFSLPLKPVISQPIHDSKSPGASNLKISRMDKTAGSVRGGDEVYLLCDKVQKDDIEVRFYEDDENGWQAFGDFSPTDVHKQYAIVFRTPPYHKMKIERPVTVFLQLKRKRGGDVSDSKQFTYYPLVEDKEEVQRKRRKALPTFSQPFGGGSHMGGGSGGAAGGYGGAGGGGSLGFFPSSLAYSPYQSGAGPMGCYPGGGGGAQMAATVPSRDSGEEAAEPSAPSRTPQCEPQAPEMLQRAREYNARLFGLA
Description: as §1

[3] = kinetic assay, ΔRFU 60 min-0 min
[4] = HTS, 5 µg/mL, NPDepo hits, read-out: RelA HTS % Inhibition @ 5 µg/mL
[5] = Retest Run1, 5 µg/mL, read-out: RelA Retest % Inhibition @ 5 µg/mL Run1
[6] = Retest Run2, 5 µg/mL, read-out: RelA Retest % Inhibition @ 5 µg/mL Run2
[7] = Retest average of Run1 and Run2, 5 µg/mL, read-out: RelA Retest % Inhibition @ 5 µg/mL Avg.
[8] = kinetic assay, 5 µg/mL, ΔRFU 60 min-0 min, read-out: Kinetic assay @ 5 µg/mL RelA Inhibition % ΔRFU(60 min-0 min)

RelA, sequence (Q04206 19-306 limits assumed): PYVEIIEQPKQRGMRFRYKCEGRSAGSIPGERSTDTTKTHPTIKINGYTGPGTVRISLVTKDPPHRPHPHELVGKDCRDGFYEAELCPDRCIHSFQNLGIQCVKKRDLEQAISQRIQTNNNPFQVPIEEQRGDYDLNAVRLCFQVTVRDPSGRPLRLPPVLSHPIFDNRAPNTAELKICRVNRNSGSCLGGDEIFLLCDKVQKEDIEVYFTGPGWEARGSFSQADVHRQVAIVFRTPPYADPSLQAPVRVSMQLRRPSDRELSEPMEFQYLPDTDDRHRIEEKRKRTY

O=c1c(=Cc2ccc(-c3ccccc3F)o2)sc2nc3sc4c(c3c(=O)n12)CCCC4
RelA HTS % Inhibition ([1]; HTS, NPDepo hits): 33.6%
RelA Retest % Inhibition Run1 [1]: 26.4%
RelA Retest % Inhibition Run2 [1]: 32.2%
RelA Retest % Inhibition Avg. [1]: 29.3%
Kinetic assay RelA Inhibition % ΔRFU(60 min-0 min) [1, 3]: 0.774%
p52 HTS % Inhibition ([2]; HTS, NPDepo hits): 20.7%
p52 Retest % Inhibition Run1 [2]: 25.8%
p52 Retest % Inhibition Run2 [2]: 30.7%
p52 Retest % Inhibition Avg. [2]: 28.2%
Kinetic assay p52 Inhibition % ΔRFU(60 min-0 min) [2, 3]: -0.236%

CCN1C(=O)C(=CC=C2Oc3ccccc3N2CCC(=O)O)N(C)C1=S
RelA HTS % Inhibition ([1]; HTS, NPDepo hits): 107.7%
Kinetic assay RelA Inhibition % ΔRFU(60 min-0 min) [1, 3]: -18%
p52 HTS % Inhibition ([2]; HTS, NPDepo hits): 115.0%
Kinetic assay p52 Inhibition % ΔRFU(60 min-0 min) [2, 3]: -27%

O=C(O)CSCC(=O)N1CCn2c3c(c4cc(C5CCCCC5)ccc42)CCCC31 (stereo not drawn)
RelA HTS % Inhibition ([1]; HTS, NPDepo hits): 35.7%
RelA Retest % Inhibition Run1 [1]: 22.2%
RelA Retest % Inhibition Run2 [1]: 23.7%
RelA Retest % Inhibition Avg. [1]: 22.9%
Kinetic assay RelA Inhibition % ΔRFU(60 min-0 min) [1, 3]: -2.34%
p52 HTS % Inhibition ([2]; HTS, NPDepo hits): 19.2%
p52 Retest % Inhibition Run1 [2]: 18.8%
p52 Retest % Inhibition Run2 [2]: 22.6%
p52 Retest % Inhibition Avg. [2]: 20.7%
Kinetic assay p52 Inhibition % ΔRFU(60 min-0 min) [2, 3]: -3.52%

COc1cc(/C=C/C(=O)CC(=O)/C=C/c2ccc(O)c(OC)c2)ccc1O [Curcumin]
inhibition at 5 µg/mL [1, 4]: 116%
inhibition at 5 µg/mL [1, 5]: 135%
inhibition at 5 µg/mL [1, 6]: 149%
inhibition at 5 µg/mL [1, 7]: 142%
inhibition at 5 µg/mL [1, 8]: -84%

COc1cccc2c1C(=O)c1c(O)c3c(c(O)c1C2=O)C[C@@](O)(C(C)=O)C[C@@H]3O[C@H]1C[C@H](N)[C@H](O)[C@H](C)O1 [DAUNORUBICIN]
Kinetic assay p52 % Inhibition ΔRFU(60 min-0 min) ([2]; kinetic assay): -16%

COc1cccc2c1C(=O)c1c(O)c3c(c(O)c1C2=O)C[C@@](O)(C(C)=O)C[C@@H]3O[C@H]1C[C@H](N)[C@H](O)[C@H](C)O1 [Daunomycin]
inhibition at 5 µg/mL ([2]; HTS, 5 µg/mL, NPDepo hits, read-out: p52 HTS % Inhibition @ 5 µg/mL): 77.8%
inhibition at 5 µg/mL ([2]; Retest Run1, 5 µg/mL, read-out: p52 Retest % Inhibition @ 5 µg/mL Run1): 92.7%
inhibition at 5 µg/mL ([2]; Retest Run2, 5 µg/mL, read-out: p52 Retest % Inhibition @ 5 µg/mL Run2): 99%
inhibition at 5 µg/mL ([2]; Retest average of Run1 and Run2, 5 µg/mL, read-out: p52 Retest % Inhibition @ 5 µg/mL Avg.): 95.9%
inhibition at 5 µg/mL ([2]; kinetic assay, 5 µg/mL, ΔRFU 60 min-0 min, read-out: Kinetic assay @ 5 µg/mL p52 Inhibition % ΔRFU(60 min-0 min)): -4.66%

COc1cccc2c1C(=O)c1c(O)c3c(c(O)c1C2=O)C[C@@](O)(C(C)=O)C[C@@H]3O[C@H]1C[C@H](N)[C@H](O)[C@H](C)O1 [Daunorubicin hydrochloride]
Kinetic assay p52 % Inhibition ΔRFU(60 min-0 min) ([2]; kinetic assay): -16% and -18%

COc1cccc2c1C(=O)c1c(O)c3c(c(O)c1C2=O)C[C@@](O)(C(C)=O)C[C@@H]3O[C@H]1C[C@H](N)[C@H](O)[C@H](C)O1 [Daunorubicin(Daunomycin)]
p52 HTS % Inhibition ([2]; HTS, NPDepo hits): 78.5%
p52 Retest % Inhibition Run1 [2]: 79.2%
p52 Retest % Inhibition Run2 [2]: 84.3%
p52 Retest % Inhibition Avg. [2]: 81.7%
Kinetic assay p52 Inhibition % ΔRFU(60 min-0 min) [2, 3]: -7%

COc1cccc2c1C(=O)c1c(O)c3c(c(O)c1C2=O)C[C@@](O)(C(=O)CO)C[C@@H]3O[C@H]1C[C@H](N)[C@H](O)[C@H](C)O1 [Doxorubicin]
inhibition at 5 µg/mL [1, 4]: 70.5%
inhibition at 5 µg/mL [1, 5]: 69.2%
inhibition at 5 µg/mL [1, 6]: 78.3%
inhibition at 5 µg/mL [1, 7]: 73.8%
inhibition at 5 µg/mL [1, 8]: -12%

Cc1ccc(C(=O)Nc2ccc(S(=O)(=O)[O-])c3cc(S(=O)(=O)[O-])cc(S(=O)(=O)[O-])c23)cc1NC(=O)c1cccc(NC(=O)Nc2cccc(C(=O)Nc3cc(C(=O)Nc4ccc(S(=O)(=O)[O-])c5cc(S(=O)(=O)[O-])cc(S(=O)(=O)[O-])c45)ccc3C)c2)c1.[Na+].[Na+].[Na+].[Na+].[Na+].[Na+] [Suramin hexasodium salt]
Kinetic assay @ 50 µM p52 Inhibition % ΔRFU(120 min-0 min) ([2]; 96 well plate, 50 µM, 120 min-0 min): 73%
p52 HTS % Inhibition ([2]; HTS, known drugs): 4.7%
p52 Retest % Inhibition Run1 [2]: 4.9%
p52 Retest % Inhibition Run2 [2]: 5.3%
p52 Retest % Inhibition Avg. [2]: 5.1%
Kinetic assay p52 % Inhibition ΔRFU(60 min-0 min) ([2]; kinetic assay): 7%

Cc1ccc(C(=O)Nc2ccc(S(=O)(=O)O)c3cc(S(=O)(=O)O)cc(S(=O)(=O)O)c23)cc1NC(=O)c1cccc(NC(=O)Nc2cccc(C(=O)Nc3cc(C(=O)Nc4ccc(S(=O)(=O)O)c5cc(S(=O)(=O)O)cc(S(=O)(=O)O)c45)ccc3C)c2)c1 [Suramin, reference compound]
p52–DNA binding inhibition at 50 µM ([2]; 96-well plates, 50 µM): inhibited both RelA–DNA and p52–DNA binding
suppression of p52–DNA binding ([2]; HTS, 10 µM or 5 µg/mL): less than 10%
